Data as given in patent US9226897B2, “Self-assembling nanoparticles for the release of bisphosphonates in the treatment of human cancers” (Istituti Fisioterapici Ospitalieri, priority 2010, dated 2016).
pIC50: −log10 of the molar value.

Legend:
[1] = test system: KMS; experiment: MTT proliferation assay, KMS multiple myeloma cells; format: cell-based; settings: Homo sapiens, Multiple myeloma cell, 72 h, read-out: IC50 (50% inhibitory concentration), growth inhibition
Protocol: (§1) Human melanoma cells (M14) and doxorubicin resistant cells (M14+) were provided by Prof. G. Arancia form the National Institute of Health of Rome. […] Proliferation of human cancer cell lines was performed in the presence of increasing concentrations of different drugs by MTT assay as previously described by Caraglia et al. (Oncogene 2004).
(§2) It was studied the effect of increasing concentrations of ZOL encapsulated in pre- and post-PLCaP NPs on growth inhibition of different human cancer cell lines, by MTT assay. In Table 2, the IC50 (50% inhibitory concentration) values of ZOL, free or encapsulated in pre- or post-PLCaP NPs, in the different cell lines analysed after 72 h, are reported. […] Moreover, when using ZOL-encapsulating NPs, we found a potentiation factor (PF)>1.0 in all tested cell lines, if compared with the free ZOL. […] In particular, on MCF7, pre-PLCaPZ NPs caused an about 12-fold potentiation of ZOL-induced cytotoxicity, while a lower effect (about 8-fold) was found with post-PLCaP NPs.

[2] = test system: Panc; experiment: MTT proliferation assay, Panc pancreas cancer cells; format: cell-based; settings: Homo sapiens, 72 h, read-out: IC50 (50% inhibitory concentration), growth inhibition
Protocol: as §1, §2

[3] = test system: DU145; experiment: MTT proliferation assay, DU145 prostate cancer cells; format: cell-based; settings: Homo sapiens, DU-145, 72 h, read-out: IC50 (50% inhibitory concentration), growth inhibition
Protocol: as §1, §2

[4] = test system: DOX; experiment: MTT proliferation assay, DOX multiple myeloma cells; format: cell-based; settings: Homo sapiens, Multiple myeloma cell, 72 h, read-out: IC50 (50% inhibitory concentration), growth inhibition
Protocol: as §1, §2

[5] = test system: PC-3 cells; experiment: In vivo antitumoral activity on prostate cancer, PC-3 xenograft in nude mice; set-up: species or system CD-1 nude (nu/nu) mice; settings: PC-3 tumors in nude mice, 20 μg ZOL i.v. three times a week for three weeks
Protocol: CD-1 nude (nu/nu) mice, 6-8 weeks old were purchased from Charles River Laboratories (Milano, Italy).
Mice have been acclimated for one week before to be injected with tumor cells. Mice were injected intramuscularly with tumor cells at 3×10^6 cells/mouse in 200 μl of PBS. Six days after, a tumor mass of about 0.3 cm^3 in diameter was evident, mice were randomized in four groups. Six mice/group were treated with ZOL free or NP containing ZOL for 3 consecutive weeks. Tumor mass was calculated three times a week from caliper measurements by using the formula π/6 AB, where A is the major diameter and B is the minor diameter, corresponding to tumor mass (Sommer K. et al. International Journal of Oncology 2001). Toxicity was evaluating by measuring the body weight two times a week. Student's t test was used for statistical comparison of differences.
As control, a group of mice was treated with NP not containing ZOL, to evaluate the potential antitumoral effects. Mice were treated three times a week for three consecutive weeks. Antitumor efficacy of treatments was assessed by the following end-points: a) percent tumor weight inhibition (TWI %), calculated as [1-(mean tumor weight of treated mice/mean tumor weight of controls)]×100; b) tumor growth delay, evaluated as T−C, where T and C are the median times for treated (T) and untreated tumors (C), respectively, to achieve equivalent size.

[6] = test system: MIA PaCa; experiment: MTT proliferation assay, MIA PaCa pancreas cancer cells; format: cell-based; settings: Homo sapiens, MIA PaCa-2, 72 h, read-out: IC50 (50% inhibitory concentration), growth inhibition
Protocol: as §1, §2

[7] = test system: CG5; experiment: MTT proliferation assay, CG5 breast cancer cells; format: cell-based; settings: Homo sapiens, 72 h, read-out: IC50 (50% inhibitory concentration), growth inhibition
Protocol: as §1, §2

[8] = test system: KB; experiment: MTT proliferation assay, KB head/neck cancer cells; format: cell-based; settings: Homo sapiens, 72 h, read-out: IC50 (50% inhibitory concentration), growth inhibition
Protocol: as §1, §2

[9] = test system: H1355; experiment: MTT proliferation assay, H1355 lung cancer cells; format: cell-based; settings: Homo sapiens, NCI-H1355, 72 h, read-out: IC50 (50% inhibitory concentration), growth inhibition
Protocol: as §1, §2

[10] = cited from earlier work
[11] = test system: RPMI; experiment: MTT proliferation assay, RPMI multiple myeloma cells; format: cell-based; settings: Homo sapiens, Multiple myeloma cell, 72 h, read-out: IC50 (50% inhibitory concentration), growth inhibition
Protocol: as §1, §2

[12] = test system: BX-PC3; experiment: MTT proliferation assay, BX-PC3 pancreas cancer cells; format: cell-based; settings: Homo sapiens, BXPC-3, 72 h, read-out: IC50 (50% inhibitory concentration), growth inhibition
Protocol: as §1, §2

[13] = test system: PC3; experiment: MTT proliferation assay, PC3 prostate cancer cells; format: cell-based; settings: Homo sapiens, PC-3, 72 h, read-out: IC50 (50% inhibitory concentration), growth inhibition
Protocol: as §1, §2

[14] = test system: MDA-MB468; experiment: MTT proliferation assay, MDA-MB468 breast cancer cells; format: cell-based; settings: Homo sapiens, MDA-MB-468, 72 h, read-out: IC50 (50% inhibitory concentration), growth inhibition
Protocol: as §1, §2

[15] = test system: OPM2; experiment: MTT proliferation assay, OPM2 multiple myeloma cells; format: cell-based; settings: Homo sapiens, OPM-2, 72 h, read-out: IC50 (50% inhibitory concentration), growth inhibition
Protocol: as §1, §2

[16] = test system: MCF7; experiment: MTT proliferation assay, MCF7 breast cancer cells; format: cell-based; settings: Homo sapiens, 72 h, read-out: IC50 (50% inhibitory concentration), growth inhibition
Protocol: as §1, §2

[17] = ZOL 4 mg intravenous over 15 min

O=P(O)(O)C(O)(Cn1ccnc1)P(=O)(O)O [free ZOL, zoledronic acid]
pIC50 [1]: 4.52 | pIC50 [2]: 4.49 | pIC50 [3]: 4.60 | pIC50 [4]: 4.38 | TWI (%), percent tumor weight inhibition ([5]; at the nadir of the effect): 17% | T-C (days), tumor growth delay ([5]; median times to equivalent size): 5 days | pIC50 [6]: 4.26 | pIC50 [7]: 4.13 | pIC50 [8]: 4.64 | pIC50 [9]: 4.19 | distribution plasma half-life (t1/2) [10, 17]: 0.25 h | elimination plasma half-life (t1/2β) [10, 17]: 1.75 h | Cmax ([10]; ZOL 4 mg intravenous over 15 min, read-out: maximum plasma concentration (Cmax)): ~1000 nM | initially administered dose retained in the skeleton ([10]; in vivo): approximately 55% | pIC50 [11]: 3.92 | pIC50 [12]: 4.91 | pIC50 [13]: 4.90 | pIC50 [14]: 4.55 | pIC50 [15]: 4.08 | pIC50 [16]: 3.92
